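Tested at 5 concentrations; 48 h exposure; 96-well plates; endpoints linearly interpolated, else capped at highest concentration. At the GI50, growth is halved.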 Active and inactive are the calls of the source. Cut-off read from the data, not from the text of the source: active = GI50 up to about 1.1 µM and inactive = higher.
Legend:
Test in all cases: DTP human tumour cell line panel, 48 h
786-0 = test system: 786-0
A498 = test system: A498
A549 = test system: A549
ACHN = test system: ACHN
BT-549 = test system: BT-549
CAKI-1 = test system: CAKI-1
COLO 205 = test system: COLO 205
DU-145 = test system: DU-145
EKVX = test system: EKVX
HCT-116 = test system: HCT-116
HCT-15 = test system: HCT-15
HL-60 = test system: HL-60
HOP-62 = test system: HOP-62
HOP-92 = test system: HOP-92
HT-29 = test system: HT-29
Hs-578T = test system: Hs-578T
IGROV-1 = test system: IGROV-1
K562 = test system: K562
KM12 = test system: KM12
LOX IMVI = test system: LOX IMVI
M14 = test system: M14
MCF7 = test system: MCF7
MDA-MB-231 = test system: MDA-MB-231
MDA-MB-435 = test system: MDA-MB-435
MDA-N = test system: MDA-N
MOLT-4 = test system: MOLT-4
Malme-3M = test system: Malme-3M
NCI-H226 = test system: NCI-H226
NCI-H23 = test system: NCI-H23
NCI-H522 = test system: NCI-H522
NCI/ADR-RES = test system: NCI/ADR-RES
OVCAR-3 = test system: OVCAR-3
OVCAR-4 = test system: OVCAR-4
OVCAR-5 = test system: OVCAR-5
OVCAR-8 = test system: OVCAR-8
PC-3 = test system: PC-3
RPMI-8226 = test system: RPMI-8226
RXF 393 = test system: RXF 393
SF-268 = test system: SF-268
SF-295 = test system: SF-295
SF-539 = test system: SF-539
SK-MEL-28 = test system: SK-MEL-28
SK-MEL-2 = test system: SK-MEL-2
SK-MEL-5 = test system: SK-MEL-5
SK-OV-3 = test system: SK-OV-3
SN12C = test system: SN12C
SNB-19 = test system: SNB-19
SNB-75 = test system: SNB-75
SR = test system: SR
SW-620 = test system: SW-620
T47D = test system: T47D
U-251 = test system: U-251
UACC-62 = test system: UACC-62
UO-31 = test system: UO-31
CCRF-CEM = test system: CCRF-CEM
NCI-H460 = test system: NCI-H460
TK-10 = test system: TK-10
UACC-257 = test system: UACC-257

## Clc1ccccc1NN(Cc1ccccn1)c1ccccc1Cl
786-0
  GI50: 16.9 µM (inactive)
A498
  GI50: 20.5 µM (inactive)
A549
  GI50: 16.7 µM (inactive)
ACHN
  GI50: 33.9 µM (inactive)
BT-549
  GI50: 25.1 µM (inactive)
CAKI-1
  GI50: 54.3 µM (inactive)
COLO 205
  GI50: 15.6 µM (inactive)
DU-145
  GI50: 35.5 µM (inactive)
EKVX
  GI50: 23 µM (inactive)
HCT-116
  GI50: 14 µM (inactive)
HCT-15
  GI50: 24.9 µM
HL-60
  GI50: 18.5 µM (inactive)
HOP-62
  GI50: 17.9 µM (inactive)
HOP-92
  GI50: 16.1 µM (inactive)
HT-29
  GI50: 14.6 µM (inactive)
Hs-578T
  GI50: 26.2 µM (inactive)
IGROV-1
  GI50: 20.2 µM (inactive)
K562
  GI50: 17.3 µM (inactive)
KM12
  GI50: 16.9 µM (inactive)
LOX IMVI
  GI50: 18.6 µM (inactive)
M14
  GI50: 18.5 µM (inactive)
MCF7
  GI50: 36.1 µM (inactive)
MDA-MB-231
  GI50: 23.4 µM (inactive)
MDA-MB-435
  GI50: 16.6 µM (inactive)
MDA-N
  GI50: 17.2 µM (inactive)
MOLT-4
  GI50: 17.3 µM (inactive)
Malme-3M
  GI50: 19 µM (inactive)
NCI-H226
  GI50: 16.2 µM (inactive)
NCI-H23
  GI50: 20 µM (inactive)
NCI-H522
  GI50: 17.6 µM (inactive)
NCI/ADR-RES
  GI50: 16.7 µM (inactive)
OVCAR-3
  GI50: 18.1 µM (inactive)
OVCAR-4
  GI50: 16.2 µM (inactive)
OVCAR-5
  GI50: 20.9 µM (inactive)
OVCAR-8
  GI50: 21.2 µM (inactive)
PC-3
  GI50: 29.2 µM (inactive)
RPMI-8226
  GI50: 16.1 µM (inactive)
RXF 393
  GI50: 14.9 µM (inactive)
SF-268
  GI50: 22.7 µM (inactive)
SF-295
  GI50: 30.1 µM (inactive)
SF-539
  GI50: 18.7 µM (inactive)
SK-MEL-28
  GI50: 20.5 µM (inactive)
SK-MEL-2
  GI50: 17.1 µM (inactive)
SK-MEL-5
  GI50: 14.5 µM (inactive)
SK-OV-3
  GI50: 49.8 µM (inactive)
SN12C
  GI50: 18.8 µM (inactive)
SNB-19
  GI50: 27.9 µM (inactive)
SNB-75
  GI50: 20.1 µM (inactive)
SR
  GI50: 13.4 µM (inactive)
SW-620
  GI50: 17.7 µM (inactive)
T47D
  GI50: 27.4 µM (inactive)
U-251
  GI50: 15.8 µM (inactive)
UACC-62
  GI50: 16.7 µM (inactive)
UO-31
  GI50: 20.4 µM (inactive)

## O=C1C(c2c(O)[nH]c3ccc(I)cc23)=Nc2ccccc21
786-0
  GI50: 2.02 µM (inactive)
A498
  GI50: 1.9 µM (inactive)
A549
  GI50: 3.84 µM (inactive)
ACHN
  GI50: 3.23 µM (inactive)
BT-549
  GI50: 7.53 µM (inactive)
CAKI-1
  GI50: 7.06 µM (inactive)
CCRF-CEM
  GI50: 39.6 µM (inactive)
COLO 205
  GI50: 11.6 µM (inactive)
DU-145
  GI50: 4.74 µM (inactive)
EKVX
  GI50: 4.67 µM (inactive)
HCT-116
  GI50: 1.67 µM (inactive)
HCT-15
  GI50: 7.21 µM
HL-60
  GI50: > 100 µM (inactive)
HOP-62
  GI50: 4.7 µM (inactive)
HOP-92
  GI50: 3.24 µM (inactive)
HT-29
  GI50: 7.1 µM (inactive)
Hs-578T
  GI50: 6.78 µM (inactive)
IGROV-1
  GI50: 0.0873 µM (active)
K562
  GI50: 9.66 µM (inactive)
KM12
  GI50: 5.24 µM (inactive)
LOX IMVI
  GI50: 4.88 µM (inactive)
M14
  GI50: 14 µM (inactive)
MCF7
  GI50: 4.07 µM (inactive)
MDA-MB-231
  GI50: 2.65 µM (inactive)
MDA-MB-435
  GI50: 12.1 µM (inactive)
MDA-N
  GI50: 6.68 µM (inactive)
MOLT-4
  GI50: 49.2 µM (inactive)
Malme-3M
  GI50: 8.17 µM (inactive)
NCI-H226
  GI50: 2.55 µM (inactive)
NCI-H23
  GI50: 5.61 µM (inactive)
NCI-H460
  GI50: 10.4 µM (inactive)
NCI-H522
  GI50: 4.2 µM (inactive)
NCI/ADR-RES
  GI50: 6 µM (inactive)
OVCAR-3
  GI50: 5.71 µM (inactive)
OVCAR-4
  GI50: 4.06 µM (inactive)
OVCAR-5
  GI50: 11.8 µM (inactive)
OVCAR-8
  GI50: 2.15 µM (inactive)
PC-3
  GI50: 2.94 µM (inactive)
RPMI-8226
  GI50: 9.51 µM (inactive)
RXF 393
  GI50: 3.24 µM (inactive)
SF-268
  GI50: 4.07 µM (inactive)
SF-295
  GI50: 4.88 µM (inactive)
SF-539
  GI50: 5.27 µM (inactive)
SK-MEL-28
  GI50: 11.2 µM (inactive)
SK-MEL-2
  GI50: 3.78 µM (inactive)
SK-MEL-5
  GI50: 2.57 µM (inactive)
SK-OV-3
  GI50: 3.97 µM (inactive)
SN12C
  GI50: 9.25 µM (inactive)
SNB-19
  GI50: 4.95 µM (inactive)
SNB-75
  GI50: 4.23 µM (inactive)
SR
  GI50: 10.8 µM (inactive)
SW-620
  GI50: 13.2 µM (inactive)
T47D
  GI50: 3.51 µM (inactive)
TK-10
  GI50: 4.54 µM (inactive)
U-251
  GI50: 2.87 µM (inactive)
UACC-257
  GI50: 17.9 µM (inactive)
UACC-62
  GI50: 4.66 µM (inactive)
UO-31
  GI50: 4.02 µM (inactive)

## O=C(O)CCNCC(=O)O
786-0
  GI50: > 100 µM (inactive)
A498
  GI50: > 100 µM (inactive)
A549
  GI50: > 100 µM (inactive)
ACHN
  GI50: > 100 µM (inactive)
BT-549
  GI50: > 100 µM (inactive)
CAKI-1
  GI50: > 100 µM (inactive)
CCRF-CEM
  GI50: > 100 µM (inactive)
COLO 205
  GI50: > 100 µM (inactive)
DU-145
  GI50: > 100 µM (inactive)
EKVX
  GI50: > 100 µM (inactive)
HCT-116
  GI50: > 100 µM (inactive)
HCT-15
  GI50: > 100 µM
HL-60
  GI50: > 100 µM (inactive)
HOP-62
  GI50: > 100 µM (inactive)
HOP-92
  GI50: > 100 µM (inactive)
HT-29
  GI50: > 100 µM (inactive)
Hs-578T
  GI50: > 100 µM (inactive)
IGROV-1
  GI50: > 100 µM (inactive)
K562
  GI50: > 100 µM (inactive)
KM12
  GI50: > 100 µM (inactive)
LOX IMVI
  GI50: > 100 µM (inactive)
M14
  GI50: > 100 µM (inactive)
MCF7
  GI50: > 100 µM (inactive)
MDA-MB-231
  GI50: > 100 µM (inactive)
MDA-MB-435
  GI50: > 100 µM (inactive)
MDA-N
  GI50: > 100 µM (inactive)
MOLT-4
  GI50: > 100 µM (inactive)
Malme-3M
  GI50: > 100 µM (inactive)
NCI-H226
  GI50: > 100 µM (inactive)
NCI-H23
  GI50: > 100 µM (inactive)
NCI-H460
  GI50: > 100 µM (inactive)
NCI-H522
  GI50: > 100 µM (inactive)
NCI/ADR-RES
  GI50: > 100 µM (inactive)
OVCAR-3
  GI50: > 100 µM (inactive)
OVCAR-5
  GI50: > 100 µM (inactive)
OVCAR-8
  GI50: > 100 µM (inactive)
PC-3
  GI50: > 100 µM (inactive)
RPMI-8226
  GI50: > 100 µM (inactive)
RXF 393
  GI50: > 100 µM (inactive)
SF-268
  GI50: > 100 µM (inactive)
SF-295
  GI50: > 100 µM (inactive)
SF-539
  GI50: > 100 µM (inactive)
SK-MEL-28
  GI50: > 100 µM (inactive)
SK-MEL-2
  GI50: > 100 µM (inactive)
SK-MEL-5
  GI50: > 100 µM (inactive)
SK-OV-3
  GI50: > 100 µM (inactive)
SN12C
  GI50: > 100 µM (inactive)
SNB-19
  GI50: > 100 µM (inactive)
SNB-75
  GI50: > 100 µM (inactive)
SR
  GI50: > 100 µM (inactive)
SW-620
  GI50: > 100 µM (inactive)
T47D
  GI50: > 100 µM (inactive)
TK-10
  GI50: > 100 µM (inactive)
U-251
  GI50: > 100 µM (inactive)
UACC-257
  GI50: > 100 µM (inactive)
UACC-62
  GI50: > 100 µM (inactive)
UO-31
  GI50: > 100 µM (inactive)

Reference: ChEMBL document CHEMBL1201862, “PubChem BioAssay data set” (2004)
